Where “and” joins values, the source holds several entries; their conditions need not be identical. Identical values can stand only once.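 Method: 48-hour compound exposure of cells in 96-well plates, five concentrations, linear interpolation of endpoints. GI50 is the concentration that inhibits growth by half. TGI is the concentration that stops growth completely.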
How the values were obtained:
Test in all cases: growth of human tumour cells (NCI), 48 h
M14 melanoma = tested on: M14 melanoma
SF-268 CNS = tested on: SF-268 CNS
K-562 leukemia = tested on: K-562 leukemia
MOLT-4 leukemia = tested on: MOLT-4 leukemia
RXF 393 renal = tested on: RXF 393 renal
UACC-257 melanoma = tested on: UACC-257 melanoma
HOP-92 NSCLC = tested on: HOP-92 NSCLC
SNB-19 CNS = tested on: SNB-19 CNS
RPMI-8226 leukemia = tested on: RPMI-8226 leukemia
UACC-62 melanoma = tested on: UACC-62 melanoma

SMILES | TGI (M14 melanoma) [µM] | TGI (SF-268 CNS) [µM] | TGI (K-562 leukemia) [µM] | TGI (MOLT-4 leukemia) [µM] | TGI (RXF 393 renal) [µM] | TGI (UACC-257 melanoma) | TGI (HOP-92 NSCLC) [µM] | TGI (SNB-19 CNS) [µM] | TGI (RPMI-8226 leukemia) [µM] | TGI (UACC-62 melanoma) [µM] | GI50 (RPMI-8226 leukemia) | GI50 (M14 melanoma) | GI50 (SF-268 CNS) | GI50 (K-562 leukemia) | GI50 (UACC-62 melanoma) | GI50 (MOLT-4 leukemia) | GI50 (UACC-257 melanoma) | GI50 (HOP-92 NSCLC) | GI50 (SNB-19 CNS) | GI50 (RXF 393 renal) [µM]
NC(=O)c1c[se]c(C2OC(COP(=O)(O)CP(=O)(O)OCC3OC(n4cnc5c(N)ncnc54)C(O)C3O)C(O)C2O)n1 (stereo not drawn) | > 100 | > 100 | > 100 | > 100 | > 100 | > 100 µM | > 100 | > 100 | – | – | – | – | – | – | – | – | – | – | – | –
CC[P+]1(CC)CCCC1 | > 100 | > 100 | > 100 | > 100 | > 100 | > 100 µM | – | > 100 | > 100 | > 100 | – | – | – | – | – | – | – | – | – | –
COC(=O)C1(F)C(=O)NC(=O)NC1OC (stereo not drawn) | – | > 100 | > 100 | > 100 | – | > 100 µM | > 100 | > 100 | > 100 | > 100 | – | – | – | – | – | – | – | – | – | –
COC(=O)[C@H](Cc1ccccc1)NC(=O)c1csc([C@@H](C[C@H](C(C)C)N(C)C(=O)[C@@H](NC(=O)[C@H]2CCCN2C)C2CC2)OC(C)=O)n1 | > 33.3 | > 33.3 | > 33.3 | > 33.3 | – | > 33.3 µM | > 9.56 | > 33.3 | > 33.3 | > 33.3 | 0.224 µM | 0.281 µM | 1.05 µM | 0.113 µM | 1.38 µM | 0.215 µM | 16.9 µM | 0.463 µM | 0.943 µM | –
COc1nc2c(c(O)c(C)c(=O)n2OC2OC(COC(C)=O)C(OC(C)=O)C(OC(C)=O)C2OC(C)=O)c(=O)n1C (stereo not drawn) | > 100 | > 100 | > 100 | > 100 | > 100 | – | – | > 100 | – | > 100 | – | – | – | – | – | – | – | – | – | –
NC(N)=N/N=C/c1c(-c2ccc(Cl)c([N+](=O)[O-])c2)nc2n1CCS2 | 29.1 | 40 | 16.6 | 36 | – | 51.8 µM | – | > 100 | 10.9 | 3.64 | 3.66 µM | 15.4 µM | 16.1 µM | 3.96 µM | 1.64 µM | 3.4 µM | 20.6 µM | – | 4.67 µM | –
COc1ccc(C(=O)C[C@]2(O)C(=O)Nc3c(Cl)ccc(Cl)c32)cc1 | > 100 | > 77.8 | > 100 | > 100 | – | > 100 µM | > 92.3 | > 100 | 30 | > 100 | 0.589 µM | 0.321 µM | 1.33 µM | 0.258 µM | 0.486 µM | 0.533 µM | 50.3 µM | 1.41 µM | 1.05 µM | –
c1ccc(OCCSCCCCCCCCCCSCCOc2ccccc2)cc1 | > 100 | > 100 | > 100 | > 100 | > 100 | > 100 µM | – | > 100 | > 100 | > 100 | – | – | – | – | – | – | – | – | – | –
CC1=C(C(=O)CC(=O)C(=O)NC2C3CC4CC(C3)CC2C4)Sc2ccccc2N1 (stereo not drawn) | > 100 | > 100 | > 100 | – | > 100 | > 100 µM | > 100 | > 100 | > 100 | > 100 | – | – | – | – | – | – | – | – | – | –
Cc1ccccc1NC(=O)C(=O)CC(=O)c1ccc([N+](=O)[O-])cc1 | > 100 | > 100 | – | – | > 100 | > 100 µM | > 100 | > 100 | > 100 | > 100 | – | – | – | – | – | – | – | – | – | –
CCCn1cnc2c(SCc3ccccc3)nc(N)nc21 | > 100 | > 100 | > 100 | > 100 | > 100 | > 100 µM | – | > 100 | > 100 | > 100 | 41.6 µM | > 100 µM | > 100 µM | 56.8 µM | > 100 µM | 95.7 µM | > 100 µM | – | > 100 µM | 24.4
CCOC(=O)C[C@@]12CCCNC1(C)CCc1ccccc12 (stereo partly drawn) | > 100 | – | > 100 | > 100 | – | > 100 µM | – | > 100 | > 100 | > 100 | – | – | – | – | – | – | – | – | – | –
O=C(Nc1cc(S(=O)(=O)c2ccc(Cl)cc2)ccc1Cl)c1cc(I)cc(I)c1O | 35 | 40.4 | 40.9 | 41 | 35.5 | 42.1 µM | – | 29.3 | 0.833 | 15.5 | 0.0515 µM | 17.6 µM | 18.5 µM | 16 µM | 4.2 µM | 19.3 µM | 18.4 µM | – | 14.9 µM | 15.1
CC(=O)[CH-]C(=O)c1ccccc1.CC(=O)[CH-]C(=O)c1ccccc1.[CH2-]CCC.[CH2-]CCC.[Sn+4] | 2.62 | 3.39 | 10.3 | 1.86 | 0.784 | 1.69 µM | – | 2.73 | 0.567 | 2.17 | 0.22 µM | 1.16 µM | 1.19 µM | 0.331 µM | 0.754 µM | 0.421 µM | 0.343 µM | – | 1.3 µM | 0.258
COc1cc(O)c(C(C)=O)c(O)c1 | > 100 | > 100 | > 100 | – | > 100 | > 100 µM | 90.8 | – | – | > 100 | – | – | – | – | – | – | – | – | – | –
O=C(Nc1ccccc1O)c1ccc(CNC(=O)c2ccsc2Nc2ccnc(C(F)(F)F)c2)cc1 | 7.03 | 15.1 | > 100 | 9.48 | 4.82 | 7.03 µM | – | 13.2 | 6.72 | 4.83 | 1.14 µM | 2.61 µM | 2.69 µM | 1.62 µM | 1.43 µM | 0.956 µM | 1.52 µM | – | 2.97 µM | 1.93
COc1ccc(CC2=NCCc3cc(OC)c(OC)cc32)cc1Br | – | > 100 | 93.2 | 58.6 | 90.6 | 82.6 µM | 33.7 | > 100 | – | 36.6 | – | – | – | – | – | – | – | – | – | –
C/C(=N/NC(=O)CC(=O)N(C(=O)c1ccccc1Cl)c1ccc(C)cc1)c1cc2ccccc2oc1=O | > 100 | > 100 | > 100 | – | > 100 | > 100 µM | > 100 | > 100 | – | > 100 | – | – | – | – | – | – | – | – | – | –
COc1ccc(C2ONC3=NCCN32)cc1 (stereo not drawn) | > 100 | > 100 | > 100 | > 100 | > 100 | > 100 µM | > 100 | > 100 | – | > 100 | – | > 100 µM | 70.5 µM | 38.3 µM | 67.3 µM | 37.1 µM | > 100 µM | 40.8 µM | > 100 µM | > 100
C[N+](C)=c1nc(N2CCOCC2)ss1 | > 100 | > 100 | > 100 | > 100 | > 100 | > 100 µM | > 100 | > 100 | – | > 100 | – | – | – | – | – | – | – | – | – | –
O=C(/C=C/c1cn(-c2ccccc2)nc1-c1ccc([N+](=O)[O-])cc1)c1ccc(Cl)cc1 | – | > 100 | 2.73 | > 100 | 5.19 | > 100 µM | 70.1 | 27 | – | > 100 | – | – | 2.78 µM | 0.0883 µM | 6.01 µM | 1.27 µM | > 100 µM | 3.36 µM | 4.12 µM | 1.92
O=C(O)[C@@H]1CCCC[C@@H]1C(=O)N(C1CCCCC1)C1CCCCC1 | > 100 | > 100 | > 100 | > 100 | – | > 100 µM | > 100 | – | > 100 | > 100 | – | – | – | – | – | – | – | – | – | –
CC12OC(C(=O)C13CCC3)C1C(=O)c3ccccc3C(=O)C12 (stereo not drawn) | > 100 | > 100 | > 100 | > 100 | – | > 100 µM | > 100 | > 100 | > 100 | – | 26.5 µM | > 100 µM | > 100 µM | 58.1 µM | – | 37.6 µM | 44 µM | > 100 µM | > 100 µM | –
CC(=O)Oc1ccc(C2(c3ccc(OC(C)=O)cc3)C(=O)Nc3ccccc32)cc1 | > 100 | > 100 | > 87.3 | > 100 | – | 79.4 µM and > 100 µM | > 79.6 | > 100 | > 93.2 | > 100 | 20.5 µM and 17.6 µM | 34.4 µM and 38.2 µM | 38.5 µM and 32.8 µM | 17.3 µM and 42.2 µM | 34.8 µM and 43.5 µM | 16.3 µM and 28.3 µM | 24.1 µM and 28.2 µM | 11.8 µM and 16.2 µM | 42.9 µM and > 61.1 µM | –
COc1cc2cccc(N=Cc3c(Br)ccc(OC)c3OC(C)C)c2cc1OC | > 100 | > 100 | 92.9 | > 100 | – | > 100 µM | – | > 100 | 63.7 | > 100 | – | – | – | – | – | – | – | – | – | –
CC(C)(C)[Si](C)(C)OCC1OC(n2cnc3c(N)ncnc32)C(O)C1O (stereo not drawn) | > 100 | > 100 | > 100 | > 100 | > 100 | > 100 µM | – | > 100 | > 100 | > 100 | – | – | – | – | – | – | – | – | – | –
COc1ccc2[nH]c3c(=O)[nH]ncc3c2c1 | > 100 | > 100 | > 100 | > 100 | – | > 100 µM | > 100 | > 100 | > 100 | > 100 | – | – | – | – | – | – | – | – | – | –

Source: PubChem BioAssay (NCI)
